From patent US12172986B2, “Splicing modulator antibody-drug conjugates and methods of use” (EISAI R&D MANAGEMENT CO., LTD., priority 2018, dated 2024)

Legend:
[1] = system: PC3 cells; experiment: Cell viability, EPHA2-expressing PC3; format: cell-based; details: for GI50: Homo sapiens, PC-3, corresponding payload alone; for Payload LD50: corresponding payload alone
Method: (§2) HCC1954 (American Type Culture Collection (ATCC)) breast ductal carcinoma cells were plated at 2000 cells/well in flat bottom 96-well tissue culture plates (Corning) in a total volume of 90 μL tissue culture medium supplemented with 10% fetal bovine serum (ThermoFisher Scientific). Cells were treated with a 3-fold serial dilution of compound from 200 nM to 0.03 nM. Each concentration was tested in triplicate. At the time of treatment, a plate of untreated cells was evaluated using CellTiter-Glo®2.0 Luminescent Cell Viability Assay according to the manufacturer's recommendations (Promega; #G9241). CellTiter-Glo® 2.0 reagent was added to the medium, incubated, and assayed on an EnVision Multilabel Reader (PerkinElmer). Values represent time zero (TO). […] Percentage growth inhibition was calculated as: [(T144-T0)/(C-TO)]×100 for concentrations for which T144>/=TO or [(T144-T0)/T0]×100 for concentrations for which T144<TO. The dose response curve plots were generated using Prism 7 (Graphpad) and fit using nonlinear regression analysis and the log(inhibitor) versus response-variable slope (four parameters).

[2] = system: Ad2.1 pre-mRNA splicing; experiment: In vitro splicing (IVS) RT-qPCR, Ad2.1 pre-mRNA, HeLa nuclear extract; format: biochemical; details: payload of the ADC; read-out: qPCR-IVS-AT S Gmean IC50 (nm) Ad2.1 HELA.2
Method: HeLa nuclear extract preparation: HeLa S3 cell pellets were resuspended in hypotonic buffer (10 mM HEPES pH 7.9, 1.5 mM MgCl2, 10 mM KCl, 0.2 mM PMSF, 0.5 mM DTT) and the suspension was brought up to a total of 5 packed cell volume (PCV). After centrifugation, the supernatant was discarded, and the cells were brought up to 3 PCV with hypotonic buffer and incubated on ice for 10 min. Cells were lysed using a dounce homogenizer and then centrifuged. […] The nuclei were gently mixed for 30 min before centrifuging. The supernatant (nuclear extract) was then dialyzed into storage buffer (20 mM HEPES pH 7.9, 100 mM KCl, 0.2 mM EDTA, 20% glycerol, 0.2 mM PMSF, 0.5 mM DTT). Protein concentration was determined using NanoDrop 8000 UV-Vis spectrophotometer (ThermoFisher Scientific).
IVS: All Ad2-derived sequences (Pellizzoni et al. (1998) Cell 95(5):615-24) were cloned into pcDNA3.1(+) vector (Promega) using 5′ EcoRI and 3′ Xbal restriction sites. The plasmids were linearized using Xbal and used as DNA templates in in vitro transcription reactions. The FtzΔi intron-less plasmid (Luo and Reed (1999) 96(26):14937-42) was linearized using EcoRI. All RNAs were in vitro transcribed and then purified using MEGAScript T7 (Invitrogen) and MegaClear (Invitrogen) kits, respectively. For splicing reactions using Ad2 variant pre-mRNAs, 1 μL reactions were prepared using 8 μg nuclear extracts prepared from HeLa S3, 2 ng pre-mRNA, 0.2 ng FTZΔi, and varying concentrations of compounds or DMSO. After a 15 min pre-incubation at 30° C., 1 μL splicing activation buffer (0.5 mM ATP, 20 mM creatine phosphate, 1.6 mM MgCl2) was added, and the reactions were incubated for 90 min at 30° C. The reactions were then quenched with 13 μL DMSO, and 25 nL was used for RT-qPCR. RT-qPCR reactions were prepared using TaqMan RNA-to-CT 1-step kit (Life Technologies), RNA from splicing reactions, Ad2 (forward: [sequence]; reverse: [sequence]; probe: [sequence]) and Ftz (forward: [sequence]; reverse: [sequence]; probe: [sequence]) mRNA primer-probe sets. Prism 7 (Graphpad) was used for non-linear regression curve fitting of the formed spliced product and normalized to the control (DMSO) sample.

[3] = system: N87 cells; experiment: Cell viability CellTiter-Glo, N87; format: cell-based, human; details: unconjugated payload of the ADC
Method: as §2
(§3) HCC1954 (ATCC), 2000 cells/well), N87 (ATCC, 4000 cells/well), SKBR3 (ATCC, 3000 cells/well), and MCF7 (ATCC, 1500 cells/well) cell lines were used.

[4] = system: MCF7 cells; experiment: Cell viability CellTiter-Glo, HER2-negative MCF7; details: unconjugated payload of the ADC
Method: HCC1954 (American Type Culture Collection (ATCC)) breast ductal carcinoma cells were plated at 2000 cells/well in flat bottom 96-well tissue culture plates (Corning) in a total volume of 90 μL tissue culture medium supplemented with 10% fetal bovine serum (ThermoFisher Scientific). Cells were treated with a 3-fold serial dilution of compound from 200 nM to 0.03 nM. Each concentration was tested in triplicate. At the time of treatment, a plate of untreated cells was evaluated using CellTiter-Glo®2.0 Luminescent Cell Viability Assay according to the manufacturer's recommendations (Promega; #G9241). CellTiter-Glo® 2.0 reagent was added to the medium, incubated, and assayed on an EnVision Multilabel Reader (PerkinElmer). Values represent time zero (TO). […] Using the luminescence value at time zero (TO), DMSO control growth (C), and test growth in the presence of compound (T144), the percentage growth was calculated at each of the compound concentrations levels. Percentage growth inhibition was calculated as: [(T144-T0)/(C-TO)]×100 for concentrations for which T144>/=TO or [(T144-T0)/T0]×100 for concentrations for which T144<TO. The dose response curve plots were generated using Prism 7 (Graphpad) and fit using nonlinear regression analysis and the log(inhibitor) versus response-variable slope (four parameters).
as §3

[5] = system: HCC1954 cells; experiment: Cell viability CellTiter-Glo, HCC1954; format: cell-based; details: unconjugated payload of the ADC
Method: as §2, §3

[6] = system: Caco-2 cells; experiment: Caco-2 permeability of ADC payload; format: in vitro ADME; details: for Perm. Mean Caco-2 A-B Perm (10e-6 cm/s) / Perm. Mean Caco-2 B-A Perm (10e-6 cm/s): corresponding free payload of the ADC
Method: (§1) Integrity of cell monolayer was confirmed by TEER (transepithelial electrical resistance) and Lucifer yellow. Payloads were spiked in duplicate at 10 μM, separately, on both sides of the cell monolayer. Permeability rates from the apical to basolateral (A-B) direction and the basolateral to apical (B-A) direction were determined by sampling aliquots from both chambers immediately after treatment (t=0) and following incubation for 2 hours. Samples were protein precipitated with organic solvent containing internal standard and analyzed by LC-MS/MS (SCIEX; API 5500). The area ratio responses of payload/internal standard over time in both directions were used to generate permeability (cm/see) values. Efflux ratio was calculated by dividing B-A/A-B. Control compounds for low and high permeability and efflux behaved as expected.

[7] = Caco-2 permeability of ADC payload; format: in vitro ADME; details: human, Caco-2, payload; for efflux ratio at 2 h, 10 μM: B-A/A-B, read-out: Eflux ratio
Method: as §1

[8] = system: THP1.1; experiment: Payload cell potency and lethality CTGlo 72 h, THP1.1; format: cell-based; details: for CTGlo-AT S GMean LD50 (nM) 72 h THP1.1: payload; for GI50: read-out: CTGlo-AT S GMean GI50 (nM) Ad2.2 HELA.2
[9] = system: Ad2.2 pre-mRNA splicing; experiment: In vitro splicing (IVS) RT-qPCR, Ad2.2 pre-mRNA, HeLa nuclear extract; format: biochemical; details: payload of the ADC; read-out: qPCR-IVS-AT S GMean IC50 (nM) Ad2.2 HELA.2
Method: To evaluate payload activity in a cell-free system, an in vitro splicing assay was performed. The payloads were incubated with nuclear extracts and pre-mRNA substrate minigenes.
HeLa nuclear extract preparation: HeLa S3 cell pellets were resuspended in hypotonic buffer (10 mM HEPES pH 7.9, 1.5 mM MgCl2, 10 mM KCl, 0.2 mM PMSF, 0.5 mM DTT) and the suspension was brought up to a total of 5 packed cell volume (PCV). After centrifugation, the supernatant was discarded, and the cells were brought up to 3 PCV with hypotonic buffer and incubated on ice for 10 min. Cells were lysed using a dounce homogenizer and then centrifuged. […]. The nuclei were gently mixed for 30 min before centrifuging. The supernatant (nuclear extract) was then dialyzed into storage buffer (20 mM HEPES pH 7.9, 100 mM KCl, 0.2 mM EDTA, 20% glycerol, 0.2 mM PMSF, 0.5 mM DTT). Protein concentration was determined using NanoDrop 8000 UV-Vis spectrophotometer (ThermoFisher Scientific).
IVS: All Ad2-derived sequences (Pellizzoni et al. (1998) Cell 95(5):615-24) were cloned into pcDNA3.1(+) vector (Promega) using 5′ EcoRI and 3′ Xbal restriction sites. The plasmids were linearized using Xbal and used as DNA templates in in vitro transcription reactions. The FtzΔi intron-less plasmid (Luo and Reed (1999) 96(26):14937-42) was linearized using EcoRI. All RNAs were in vitro transcribed and then purified using MEGAScript T7 (Invitrogen) and MegaClear (Invitrogen) kits, respectively. For splicing reactions using Ad2 variant pre-mRNAs, 1 μL reactions were prepared using 8 μg nuclear extracts prepared from HeLa S3, 2 ng pre-mRNA, 0.2 ng FTZΔi, and varying concentrations of compounds or DMSO. After a 15 min pre-incubation at 30° C., 1 μL splicing activation buffer (0.5 mM ATP, 20 mM creatine phosphate, 1.6 mM MgCl2) was added, and the reactions were incubated for 90 min at 30° C. The reactions were then quenched with 13 μL DMSO, and 25 nL was used for RT-qPCR. RT-qPCR reactions were prepared using TaqMan RNA-to-CT 1-step kit (Life Technologies), RNA from splicing reactions, Ad2 (forward: […]; reverse: […]; probe: […]) and Ftz (forward: […]; reverse: […]; probe: […]) mRNA primer-probe sets. Prism 7 (Graphpad) was used for non-linear regression curve fitting of the formed spliced product and normalized to the control (DMSO) sample. […] In the presence of payload, a decrease in the amount of spliced product was observed.

[10] = system: MOLP8 cells; experiment: Cell viability, CD138-expressing MOLP8; format: cell-based; details: unconjugated payload of the ADC
Method: as §2

Row | Structure (SMILES) | Payload LD50 [1] [nM] | IC50 [2] [nM] | efflux ratio at 2 h, 10 μM [7] | CTGlo-AT S GMean LD50 (nM) 72 h THP1.1 [8] [nM] | IC50 [9] [nM] | further results
1 | C/C(=C\c1cc(F)cc(N2CCN(S(=O)(=O)c3cnn(C)c3)CC2)c1)[C@H]1OC(=O)C[C@H](O)CC[C@H](C)[C@@H](OC(=O)N2CCNCC2)/C=C/[C@@H]1C [D28] | >400 | – | – | – | – | GI50 [1]: > 400 nM
2 | CC[C@H](O)[C@@H](C)[C@H]1O[C@@H]1C[C@@](C)(O)/C=C/C=C(\C)[C@H]1OC(=O)C[C@H](O)CC[C@@](C)(OC(=O)N2CCNCC2)[C@@H](OC(C)=O)/C=C/[C@@H]1C [D8, (2S,3S,6S,7R,10R,E)-6-acetoxy-10-hydroxy-2-((R,2E,4E)-6-hydroxy-7-((2R,3R)-3-((2R,3S)-3-hydroxypentan-2-yl)oxiran-2-yl)-6-methylhepta-2,4-dien-2-yl)-3,7-dimethyl-12-oxooxacyclododec-4-en-7-yl piperazine-1-carboxylate] | 177.783 | 11.4 | 15.9 | 38.969 | 9.03 | Payload LD50 [3]: >200 nM; Payload LD50 [4]: 181.521 nM; Payload Rmin (%) [4]: −62.957%; Payload LD50 [5]: 11.175 nM; Payload Rmin (%) [5]: −80.463%; Perm. Mean Caco-2 A-B Perm (10e-6 cm/s) [6]: 0.128 10e-6 cm/s; Perm. Mean Caco-2 B-A Perm (10e-6 cm/s) [6]: 2.027 10e-6 cm/s
3 | CC[C@H](O)[C@@H](C)[C@H]1O[C@@H]1C[C@@](C)(O)/C=C/C=C(\C)[C@H]1OC(=O)C[C@H](O)CC[C@@](C)(O)[C@@H](OC(=O)N2CCNCC2)/C=C/[C@@H]1C [D12, (2S,3S,6S,7R,10R,E)-7,10-dihydroxy-2-((R,2E,4E)-6-hydroxy-7-((2R,3R)-3-((2R,3S)-3-hydroxypentan-2-yl)oxiran-2-yl)-6-methylhepta-2,4-dien-2-yl)-3,7-dimethyl-12-oxooxacyclododec-4-en-6-yl piperazine-1-carboxylate] | – | – | – | – | – | Perm. Mean Caco-2 A-B Perm (10e-6 cm/s) [6]: 0.17 10e-6 cm/s; Perm. Mean Caco-2 B-A Perm (10e-6 cm/s) [6]: 0.23 10e-6 cm/s; efflux ratio (in words) ([6]; payload): low efflux ratio
4 | CC[C@H](O)[C@@H](C)[C@H]1O[C@@H]1C[C@@](C)(O)/C=C/C=C(\C)[C@H]1OC(=O)C[C@H](O)CC[C@@](C)(OC)[C@@H](OC(=O)N(C)CCNC)/C=C/[C@@H]1C [D20, (2S,3S,6S,7R,10R,E)-10-hydroxy-2-((R,2E,4E)-6-hydroxy-7-((2R,3R)-3-((2R,3S)-3-hydroxypentan-2-yl)oxiran-2-yl)-6-methylhepta-2,4-dien-2-yl)-7-methoxy-3,7-dimethyl-12-oxooxacyclododec-4-en-6-yl methyl(2-(methylamino)ethyl)carbamate] | – | 10.9 | – | 113.557 | 8.75 | –
5 | CC(=O)N1CCC(n2nnc3c(F)cc(/C=C(\C)[C@H]4OC(=O)C[C@H](O)CC[C@H](C)[C@@H](OC(=O)N5CCNCC5)/C=C/[C@@H]4C)cc32)CC1 [D14] | >400 | 10 | 202 | 25.594 | 8.59 | LD50 (nM) (payload) [10]: 8.5 nM; Rmin (%) (payload) [10]: −61%; Payload LD50 [3]: >200 nM; Payload LD50 [4]: 77.198 nM; Payload Rmin (%) [4]: −61.886%; GI50 [8]: 3.58 nM
6 | C/C(=C\c1cc(F)cc(N2CCN(C(=O)Cn3cccn3)CC2)c1)[C@H]1OC(=O)C[C@H](O)CC[C@H](C)[C@@H](OC(=O)N2CCN(C)CC2)/C=C/[C@@H]1C [D26] | – | 18.8 | 2.58 | 28.483 | 14.3 | –
7 | CC[C@H](O)[C@@H](C)[C@H]1O[C@@H]1C[C@H](C)/C=C/C=C(\C)[C@H]1OC(=O)C[C@H](O)CC[C@@](C)(OC)[C@@H](OC(=O)N2CCNCC2)/C=C/[C@@H]1C [D18, (2S,3S,6S,7R,10R,E)-10-hydroxy-2-((S,2E,4E)-7-((2R,3R)-3-((2R,3S)-3-hydroxypentan-2-yl)oxiran-2-yl)-6-methylhepta-2,4-dien-2-yl)-7-methoxy-3,7-dimethyl-12-oxooxacyclododec-4-en-6-yl piperazine-1-carboxylate] | >400 | 12.7 | – | 4.355 | 12.7 | GI50 [1]: 1.41 nM; Payload LD50 [3]: 2.993 nM; Payload LD50 [4]: 7.697 nM; Payload Rmin (%) [4]: −68.226%; Payload LD50 [5]: 0.787 nM; Payload Rmin (%) [5]: −90.055%
8 | CC[C@H](O)[C@@H](C)[C@H]1O[C@@H]1C[C@@](C)(O)/C=C/C=C(\C)[C@H]1OC(=O)C[C@H](O)CC[C@@](C)(OC)[C@@H](OC(=O)N2CCNC(CCC(=O)O)C2)/C=C/[C@@H]1C (stereo partly drawn) [D22, 3-(4-((((2S,3S,6S,7R,10R,E)-10-hydroxy-2-((R,2E,4E)-6-hydroxy-7-((2R,3R)-3-((2R,3S)-3-hydroxypentan-2-yl)oxiran-2-yl)-6-methylhepta-2,4-dien-2-yl)-7-methoxy-3,7-dimethyl-12-oxooxacyclododec-4-en-6-yl)oxy)carbonyl)piperazin-2-yl)propanoic acid] | – | 66.3 | – | 1594.636 | 49.1 | Papp B→A at 2 h, 10 μM ([7]; 10 μM, 2 hours, basolateral to apical, read-out: Permeability Mean Caco-2 B-A Perm (10e-Gcm/s)): 0.18 ×10⁻⁶ cm/s
9 | C/C(=C\c1cc(F)cc(N2CCN(CC(=O)O)CC2)c1)[C@H]1OC(=O)C[C@H](O)CC[C@H](C)[C@@H](OC(=O)N2CCNCC2)/C=C/[C@@H]1C [D33, 2-(4-(3-fluoro-5-((E)-2-((2S,3S,6R,7S,10R,E)-10-hydroxy-3,7-dimethyl-12-oxo-6-((piperazine-1-carbonyl)oxy)oxacyclododec-4-en-2-yl)prop-1-en-1-yl)phenyl)piperazin-1-yl)acetic acid] | – | 33.4 | – | 5202.992 | 72.4 | GI50 [8]: 196 nM
10 | CC[C@H](O)[C@@H](C)[C@H]1O[C@@H]1C[C@H](C)/C=C/C=C(\C)[C@H]1OC(=O)C[C@H](O)CC[C@@](C)(OC(=O)N2CCNCC2)[C@@H](OC(C)=O)/C=C/[C@@H]1C [D13] | – | 11.3 | 19.1 | 3.358 | 8.82 | –
11 | CC[C@H](O)[C@@H](C)[C@H]1O[C@@H]1C[C@@](C)(O)/C=C/C=C(\C)[C@H]1OC(=O)C[C@H](O)CC[C@@](C)(O)[C@@H](OC(=O)N2CCN(C3CCCCCC3)CC2)/C=C/[C@@H]1C [D11, E7107] | – | 10.5 | – | 8.086 | 9.36 | GI50 [8]: 1.35 nM
12 | CC[C@H](O)[C@@H](C)[C@H]1O[C@@H]1C[C@H](C)/C=C/C=C(\C)[C@H]1OC(=O)C[C@H](O)CC[C@@](C)(OC(C)=O)[C@@H](OC(=O)N2CCNCC2)/C=C/[C@@H]1C [D9] | – | 20.2 | 14 | 3.56 | 18.1 | –
